Test results published in ChEMBL document CHEMBL1151016, “Synthesis and evaluation of 3-deoxy-D-manno-2-octulosonate-8-phosphate (KDO8P) synthase inhibitors” (Bioorg Med Chem Lett, 1997).

Test: The compound was tested for inhibitory activity against KDO 8-P synthase by using a KDO 8-P synthase enzymatic assay

Going from `O=C(O)C1=C[C@H](OCC(O)P(=O)(O)O)[C@H](O)[C@H](O)C1` (stereo partly drawn) to `O=C(O)C1=C[C@H](OCCP(=O)(O)O)[C@H](O)[C@H](O)C1`, the IC50 rises from 3.8 mM to over 25 mM. The first is the more potent here.

`O=P(O)(O)OC[C@H]1O[C@H](O)[C@H](O)[C@@H]1O` showed an IC50 of 4.3 mM.
